Measurements from ChEMBL document CHEMBL4627324, “Design and synthesis of novel 2-arylbenzimidazoles as selective mutant isocitrate dehydrogenase 2 R140Q inhibitors” (Bioorg Med Chem Lett, 2020).
Where “and” joins values, the source holds several entries; their conditions need not be identical. Identical values can stand only once.

Key:
[1] = biological target: Isocitrate dehydrogenase [NADP], mitochondrial (Homo sapiens, UniProt P48735, R140Q); assay: Inhibition of IDH2 R140Q mutant (unknown origin)
Sequence of Isocitrate dehydrogenase [NADP], mitochondrial (Homo sapiens, UniProt P48735, R140Q) (P48735 40-452 R140Q limits assumed): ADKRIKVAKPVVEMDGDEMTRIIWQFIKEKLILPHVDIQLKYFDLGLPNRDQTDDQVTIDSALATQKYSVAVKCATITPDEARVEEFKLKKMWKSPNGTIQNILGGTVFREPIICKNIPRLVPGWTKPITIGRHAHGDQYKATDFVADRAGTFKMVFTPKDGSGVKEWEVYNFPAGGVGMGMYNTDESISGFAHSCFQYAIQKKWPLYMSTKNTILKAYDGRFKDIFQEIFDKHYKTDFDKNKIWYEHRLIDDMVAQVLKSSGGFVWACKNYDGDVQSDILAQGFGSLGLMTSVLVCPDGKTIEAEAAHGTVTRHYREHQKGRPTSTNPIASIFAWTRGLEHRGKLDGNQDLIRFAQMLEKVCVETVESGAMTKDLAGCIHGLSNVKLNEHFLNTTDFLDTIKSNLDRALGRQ

[2] = biological target: Isocitrate dehydrogenase [NADP] cytoplasmic (Homo sapiens, UniProt O75874, R132H); assay: Inhibition of IDH1 R132H mutant (unknown origin)
Sequence of Isocitrate dehydrogenase [NADP] cytoplasmic (Homo sapiens, UniProt O75874, R132H) (O75874 2-414 R132H limits assumed): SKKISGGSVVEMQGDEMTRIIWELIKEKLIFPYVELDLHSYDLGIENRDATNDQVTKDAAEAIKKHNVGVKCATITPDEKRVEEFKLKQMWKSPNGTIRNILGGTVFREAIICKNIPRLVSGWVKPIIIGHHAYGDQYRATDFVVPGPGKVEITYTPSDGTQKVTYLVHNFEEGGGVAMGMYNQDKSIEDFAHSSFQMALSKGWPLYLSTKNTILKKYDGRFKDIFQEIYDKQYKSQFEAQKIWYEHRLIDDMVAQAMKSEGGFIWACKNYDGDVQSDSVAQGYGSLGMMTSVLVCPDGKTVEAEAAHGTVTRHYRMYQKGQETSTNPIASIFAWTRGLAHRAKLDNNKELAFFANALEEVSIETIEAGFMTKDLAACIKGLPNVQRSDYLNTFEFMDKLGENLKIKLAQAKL

[3] = biological target: T1, Isocitrate dehydrogenase [NADP], mitochondrial (Homo sapiens, UniProt P48735); assay: Inhibition of wild type IDH2 (unknown origin)
T1 sequence (P48735 whole entry): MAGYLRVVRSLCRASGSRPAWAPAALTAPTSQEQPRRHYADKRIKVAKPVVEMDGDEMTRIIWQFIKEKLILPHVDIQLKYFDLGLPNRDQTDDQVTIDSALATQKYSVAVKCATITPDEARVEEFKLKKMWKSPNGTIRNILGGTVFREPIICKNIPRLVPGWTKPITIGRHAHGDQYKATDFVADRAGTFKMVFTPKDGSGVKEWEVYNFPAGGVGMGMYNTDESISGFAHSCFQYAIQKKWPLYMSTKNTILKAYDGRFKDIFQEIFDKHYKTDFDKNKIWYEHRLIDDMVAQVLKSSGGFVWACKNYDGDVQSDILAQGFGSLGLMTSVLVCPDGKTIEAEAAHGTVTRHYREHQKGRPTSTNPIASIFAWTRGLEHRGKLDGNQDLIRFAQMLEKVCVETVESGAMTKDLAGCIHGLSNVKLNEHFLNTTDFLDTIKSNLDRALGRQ

[4] = biological target: Isocitrate dehydrogenase [NADP] cytoplasmic (Homo sapiens, UniProt O75874, R132C); assay: Inhibition of IDH1 R132C mutant (unknown origin)
Sequence of Isocitrate dehydrogenase [NADP] cytoplasmic (Homo sapiens, UniProt O75874, R132C) (O75874 2-414 R132C limits assumed): as the sequence (O75874 2-414 R132H limits assumed) above, with H131C counted along it

[5] = biological target: Isocitrate dehydrogenase [NADP] cytoplasmic (Homo sapiens, UniProt O75874); assay: Inhibition of wild type IDH1 (unknown origin)
Sequence of Isocitrate dehydrogenase [NADP] cytoplasmic (Homo sapiens, UniProt O75874) (O75874 whole entry): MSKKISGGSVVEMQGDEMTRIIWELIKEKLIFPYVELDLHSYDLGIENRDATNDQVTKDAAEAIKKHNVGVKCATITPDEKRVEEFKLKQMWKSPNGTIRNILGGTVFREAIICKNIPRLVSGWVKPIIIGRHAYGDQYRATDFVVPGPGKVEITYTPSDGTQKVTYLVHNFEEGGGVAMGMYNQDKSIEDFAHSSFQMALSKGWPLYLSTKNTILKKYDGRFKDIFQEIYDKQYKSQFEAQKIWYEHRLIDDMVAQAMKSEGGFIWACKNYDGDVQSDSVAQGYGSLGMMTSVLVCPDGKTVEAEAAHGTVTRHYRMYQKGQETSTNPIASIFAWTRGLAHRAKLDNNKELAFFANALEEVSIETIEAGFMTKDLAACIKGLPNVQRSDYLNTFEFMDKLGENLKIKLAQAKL

[6] = biological target: Isocitrate dehydrogenase [NADP], mitochondrial (Homo sapiens, UniProt P48735, R172K); assay: Inhibition of IDH2 R172K mutant (unknown origin)
Sequence of Isocitrate dehydrogenase [NADP], mitochondrial (Homo sapiens, UniProt P48735, R172K) (P48735 40-452 R172K limits assumed): as the sequence (P48735 40-452 R140Q limits assumed) above, with Q101R, R133K counted along it

Row | SMILES | IC50 [1] | IC50 [2] | IC50 [3] | IC50 [4] | IC50 [5] | IC50 [6]
1 | O=S(=O)(NC1CC1)c1ccc(-c2ccsc2)c(Nc2nc3ccc(Br)c(Br)c3[nH]2)c1 | 0.65 µM | > 100 µM | > 100 µM | > 100 µM | > 100 µM | > 100 µM
2 | O=C(Nc1cccc(C(F)(F)F)c1)Nc1cc(S(=O)(=O)NC2CC2)ccc1-c1ccsc1 | – | > 100 µM | – | > 100 µM | > 100 µM | –
3 | CCOC(=O)c1ccc2nc(Nc3cc(S(=O)(=O)NC4CC4)ccc3-c3ccsc3)[nH]c2c1 | > 100 µM | – | – | – | – | –
4 | Cc1ccc2nc(Nc3cc(S(=O)(=O)NC4CC4)ccc3-c3ccsc3)[nH]c2c1C | 1.61 µM | – | – | – | – | –
5 | Cc1ccccc1C(C(=O)NC1CCCCC1)N(C(=O)Cn1ccnc1C)c1cccc(F)c1 (configuration not stated) | > 100 µM | 0.17 µM | > 100 µM | 0.39 µM | > 100 µM | > 100 µM
6 | O=S(=O)(NC1CC1)c1ccc(-c2ccsc2)c(Nc2nc3ccc(F)c(F)c3[nH]2)c1 | 13.8 µM | – | – | – | – | –
7 | O=S(=O)(NC1CC1)c1ccc(-c2ccsc2)c(Nc2nc3cc(F)cc(F)c3[nH]2)c1 | 4.94 µM | – | – | – | – | –
8 | O=S(=O)(NC1CC1)c1ccc(-c2ccsc2)c(Nc2nc3ccc(Cl)c(Cl)c3[nH]2)c1 | 2.72 µM | – | – | – | – | –
9 | CC(C)(O)CNc1nc(Nc2ccnc(C(F)(F)F)c2)nc(-c2cccc(C(F)(F)F)n2)n1 [ENASIDENIB] | 0.31 µM | > 100 µM | > 100 µM | > 100 µM | > 100 µM | 1.08 µM
10 | Cc1cc(C)c2[nH]c(Nc3cc(S(=O)(=O)NC4CC4)ccc3-c3ccsc3)nc2c1 | 0.96 µM | > 100 µM | > 100 µM | > 100 µM | > 100 µM | 51.8 µM
11 | O=S(=O)(NC1CC1)c1ccc(-c2ccsc2)c(Nc2nc3ccc(C(F)(F)F)c(Cl)c3[nH]2)c1 | 4.34 µM | – | – | – | – | –

The remaining lines, values ahead:

Row | IC50 [1] | IC50 [2] | IC50 [3] | IC50 [4] | IC50 [5] | IC50 [6] | SMILES
12 | 10.3 µM | – | – | – | – | – | O=S(=O)(NC1CC1)c1ccc(-c2ccsc2)c(Nc2nc3ccc(F)c(Cl)c3[nH]2)c1
13 | 11.9 µM | – | – | – | – | – | O=S(=O)(NC1CC1)c1ccc(-c2ccsc2)c(Nc2nc3ccc(Cl)cc3[nH]2)c1
14 | 0.73 µM | > 100 µM | > 100 µM | > 100 µM | > 100 µM | 78.8 µM | O=S(=O)(NC1CC1)c1ccc(-c2ccsc2)c(Nc2nc3cc(F)ccc3[nH]2)c1
15 | 5.41 µM | – | – | – | – | – | O=S(=O)(NC1CC1)c1ccc(-c2ccsc2)c(Nc2nc3ccccc3[nH]2)c1
16 | 2.02 µM and 0.26 µM | > 100 µM | > 100 µM | > 100 µM | > 100 µM | > 100 µM | O=S(=O)(NC1CC1)c1ccc(-c2ccsc2)c(Nc2nc3cc(Br)ccc3[nH]2)c1
17 | > 100 µM | – | – | – | – | – | COC(=O)c1ccc2nc(Nc3cc(S(=O)(=O)NC4CC4)ccc3-c3ccsc3)[nH]c2c1
18 | 46.9 µM | – | – | – | – | – | COc1ccc2nc(Nc3cc(S(=O)(=O)NC4CC4)ccc3-c3ccsc3)[nH]c2c1
19 | 97.9 µM | – | – | – | – | – | N#Cc1ccc2nc(Nc3cc(S(=O)(=O)NC4CC4)ccc3-c3ccsc3)[nH]c2c1
20 | 14.1 µM | – | – | – | – | – | O=S(=O)(NC1CC1)c1ccc(-c2ccsc2)c(Nc2nc3ccc(C(F)(F)F)cc3[nH]2)c1
